Source: patent publication US20240133884A1, “COMPOSITIONS AND METHODS FOR DETECTING TRYPANOSOMA CRUZI INFECTION” (University of Georgia Research Foundation, Inc., priority 2022, published 2024)

How the values were obtained:
[1] = tested on: T. cruzi; assay: BNZ prophylaxis / treatment in kennel dogs (multiplex serology, blood PCR); format: in vivo, Trypanosoma cruzi; conditions: for impact of prophylaxis on new infections: high intensity transmission setting
Excerpt: For studies in dogs, a small network of kennels was formed in central and south Texas with a history of triatomine vector occurrence and canine Chagas disease with owners who were willing to participate in the study. Kennels are identified through (i) canine patients with Chagas disease presenting to the cardiology unit at the TAMU VMTH and (ii) the TAMU Kissing Bug Community Science program, in which many dog owners submit triatomines collected from large kennel environments. At these large kennels, dogs are primarily bred and trained to aid hunting parties. Approximately 40-80 dogs reside within each kennel, and the predominant breeds include Belgian Malinois, Brittany spaniels, English pointers, German shorthaired pointers, Labrador retrievers, and hound dogs. Dogs >3 months of age, including males and females, were eligible for enrollment. Dogs identified after blood screening as seronegative based on multiplex serology and PCR-negative were randomly assigned to treatment groups. Neither the investigators, private veterinarian providing care to the dogs in the field, nor the dog owners were blinded to the treatment groups and no placebo was given to control dogs. Informed consent was obtained from dog owners prior to their participation, and this study was approved by the Texas A&M University Institutional Committee on Animal Use and Care and the Clinical Research Review Committee.
The limit of detection was set at the lowest standard of 0.0017 parasite equivalents per 50 ng of DNA. For detection of T. cruzi infection in dogs, DNA was extracted from 250 uL of the buffy coat fraction of EDTA-treated blood using the E.Z.N.A Tissue DNA kit (Omega Bio-Tek, Norcross, GA, USA) according to the manufacturer's protocol except 50 μL of elution buffer was used. T. cruzi-negative controls (phosphate buffered saline) were included in the DNA extractions. Samples were tested using qPCR for the presence of T. cruzi satellite DNA using the Cruzi 1/2 primer set and Cruzi 3 probe in a real-time assay, which amplifies a 166-bp segment of a repetitive nuclear DNA (Piron, et al., Acta tropica. 103(3):195-200 (2007), Cummings & Tarleton, Molecular and biochemical parasitology 129(1):53-9 (2003)) as previously described (Meyers, et al., PLoS neglected tropical diseases 11(8) 2017)). A sample was considered T. cruzi-positive if the Ct value was <35 (Curtis-Robles, et al., Vet Parasitol Reg Stud Reports 12:85-8 (2018)).
The 67 animals considered infection-negative were randomly assigned to either a control (no therapy) or a prophylactic group, which received twice weekly doses of BNZ at a level of not less than 10 mg/kg. This dosage is approximately the normal daily dose previously used (mostly ineffectively) to attempt drug-cure in dogs (Guedes, et al., Acta tropica. 84(1):9-17 (2002), Santos, et al., The Journal of antimicrobial chemotherapy. 67(8):1987-95 (2012), Cunha, et al., Experimental parasitology. 204:107711 (2019)). Dogs in these groups were then re-sampled 10-12 weeks (considered the midpoint of the transmission season) and ˜24 weeks (end of season).

[2] = tested on: T. cruzi; conditions: T. cruzi-infected NHPs; cited from earlier work
[3] = tested on: T. cruzi (Brazil strain); conditions: cited from earlier work
[4] = tested on: T. cruzi (Colombiana strain); assay: BNZ prophylaxis in mice (bioluminescence imaging, T-cell phenotyping, tissue qPCR); format: in vivo, Trypanosoma cruzi; conditions: for luciferase signal: 100 mg/kg twice weekly
Procedure: For the studies in mice, female mice, 8-12 weeks old were used for infections throughout the study. Sample sizes were determined based upon knowledge of heterogeneity in parasite burden during T. cruzi infection and published reports using similar experimental strategies. Data collected were included if productive T. cruzi infection was established (visualized by luciferase imaging or flow cytometry by detection of T. cruzi-tetramer specific CD8^+ T cells). The investigators were not blinded during the collection or analysis of data and mice were randomly assigned to treatment groups prior to the start of each experiment.
C57BL/6J (Stock No:000664) mice (C57BL/6 wild-type) were purchased from The Jackson Laboratory (Bar Harbor, ME) and C57BL/6J-IFN-gamma knockout mice (also known as B6.129S7-Ifngtm1 Ts/J; The Jackson Laboratory stock No 002287) were bred in-house at the University of Georgia Animal Facility. All the animals were maintained in the University of Georgia Animal Facility under specific pathogen-free conditions. T. cruzi tissue culture trypomastigotes of the Colombiana strain co-expressing firefly luciferase and tdTomato reporter proteins, generated as described previously (Sanchez-Valdez, et al., eLife 7 (2018), Bustamante, et al., Sci Transl Med. 12(567) 2020)), were maintained through passage in Vero cells (American Type Culture Collection (Manassas, VA)) cultured in RPMI 1640 medium with 10% fetal bovine serum at 37° C. in an atmosphere of 5% CO2. Mice were infected intraperitoneally with 10^3 tissue culture trypomastigotes of T. cruzi. This study was carried out in strict accordance with the Public Health Service Policy on Humane Care and Use of Laboratory Animals and Association for Assessment and Accreditation of Laboratory Animal Care accreditation guidelines. The protocol was approved by the University of Georgia Institutional Animal Care and Use Committee.
Mice were treated with benznidazole twice weekly at a 100 mg/kg/day and infected midway during the 3rd week of treatment (FIG. 8A). Benznidazole (BNZ—Elea Phoenix, Buenos Aires, Argentina) was prepared by pulverization of tablets followed by suspension in an aqueous solution of 1% sodium carboxymethylcellulose with 0.1% Tween 80 and delivered orally by gavage at a concentration dosage of 100 mg/kg of body weight. Each mouse received 0.2 ml of this suspension. Luciferase-expressing parasites were quantified in mice by bioluminescent detection. Mice were injected intraperitoneally with D-luciferin (150 mg/kg; PerkinElmer, Waltham, MA) and anesthetized using 2.5% (vol/vol) gaseous isofluorane in oxygen prior to imaging on an IVIS Lumina II imager (Xenogen, Alameda, CA) for an exposure time of 5 minutes, as previously described (Canavaci, et al., PLoS neglected tropical diseases 4(7):e740 (2010)). Quantification of bioluminescence and data analysis was performed using Aura Imaging Software version 4.0.7 (Spectral Instruments Imaging, Tucson, AZ).
Whole blood was incubated with a major histocompatibility complex I (MHC I) tetramer containing the T. cruzi transialidase TSKB20 peptide (ANYKFTLV (SEQ ID NO:124)/Kb) labeled with BV421 (Tetramer Core Facility at Emory University, Atlanta, GA) and the following labeled antibodies: anti-CD8 FITC, anti-CD4 APC EF780, anti-CD127 PE (BD Bioscience, San Jose, CA). At least 500,000 cells were acquired using a CyAn ADP flow cytometer (Beckman Coulter, Hialeah, Florida) and analyzed with FlowJo software v10.6.1 (Treestar, Inc., Ashland, OR).
[…]

[5] = tested on: CPSF3; conditions: T. b. brucei; cited from earlier work
[6] = High dose 7-day toxicology studies in rats; format: in vivo; conditions: high dose 7-day toxicology studies, oral
[7] = Standard Ames study; format: cell-based
[8] = tested on: cytochrome P450 enzymes; assay: Inhibition of representative cytochrome P450 enzymes; format: in vitro ADME; conditions: 10 uM
[9] = tested on: mammalian enzymes, receptors and ion channels; assay: Safety pharmacology: affinity for a broad array of mammalian enzymes, receptors and ion channels; format: binding
[10] = tested on: T. cruzi intracellular amastigotes; assay: In vitro anti-T. cruzi amastigote growth inhibition assay (tdTomato fluorescence, 72 hours, Vero cells); format: cell-based, Trypanosoma cruzi; conditions: for in vitro activity against T. cruzi: in words
Procedure: (§1) The in vitro anti-T. cruzi amastiogote activity assay was performed and optimized based on the protocol described previously (Canavaci, et al., PLoS neglected tropical diseases 4, e740 (2010)). The change in tdTomato fluorescence intensity was determined as a measurement of growth over 72 hours of culture. For assaying drug effects on extracellular amastigotes, trypomastigotes were collected from infected Vero cell cultures and converted in acidic media as previously described (Tomlinson, et al., Parasitology 110 (Pt 5), 547-554 (1995)). Amastigotes (50,000/well) were incubated with 2-fold serial dilutions of compounds for 48 hours. The ATP production was used as an indication of growth in this case, and was measured by ATPlite Luminescence ATP Detection Assay System (PerkinElmer). Both fluorescence and luminescence were read using a BioTek Synergy Hybrid Multi-Mode reader equipped with the software Gene5 v 2.0 (BioTek). The dose-response curve was generated by […] analysis with GraphPad Prism v9.4.0 (GraphPad Software). IC50 was determined as the drug concentration that was required to inhibit 50% of growth compared to that of parasites with no drug exposure.

[11] = tested on: T. cruzi extracellular amastigotes; assay: Extracellular amastigote assay (ATPlite ATP production, 48 hours); format: cell-based, Trypanosoma cruzi; conditions: relative to parent ester (FIG. 2A)
Procedure: as §1

[12] = in vivo
[13] = dog BEHE4, 30 mg/kg twice a week, 24 week sample point

O=C(Cn1ccnc1[N+](=O)[O-])NCc1ccccc1 [benznidazole]
blood PCR [1, 13]: PCR negative | serology [1, 13]: seronegative | impact of prophylaxis on new infections ([1]; dogs): no impact on the incidence of new infections | impact of prophylaxis on new infections ([1]; dogs, listed as BNZ): no impact on the number of new infections | new infections ([1]; dogs, prophylaxis group, twice weekly not less than 10 mg/kg): 26.5% | failures in treatment trials [2]: > 60% | cure of established infections ([3]; mice, weekly or twice weekly high dose (2.5-5× normal daily dose)): could cure established infections | generation of cure with 20 days of treatment ([3]; mice): only partially effective | mice systemically parasite-positive ([4]; IFNγ KO mice, within 4 weeks of termination of prophylaxis): 4 of 5 | overall effect of prophylaxis regimen ([4]; WT mice): prevented or truncated an infection in most cases | luciferase signal ([4]; WT mice, day 14 post-exposure or beyond): none of the mice in the BNZ-treated WT group had a detectable luciferase signal above background | mice negative for T. cruzi DNA (qPCR of skeletal muscle, heart, gut) ([4]; WT mice, week 33): at least 3 of the 5 | fraction of CD127+ cells in the TSKb20-specific CD8+ T cell population ([4]; mice under prophylaxis vs no prophylaxis, through 21st week): substantially higher fraction of CD127+ cells | luciferase signal ([4]; some IFNγ KO mice, day 14 post-exposure (not at 12 weeks)): low level signal

Cc1c(C(=O)N[C@H](C(=O)OCc2ccc(F)cc2)C(C)C)ccc2c1B(O)OC2 [AN11736]
effect of CPSF3 overexpression on killing [5]: induced resistance to killing

Cc1c(C(=O)N[C@H](C(=O)OCc2ccc(F)cc2)C(C)(C)O)ccc2c1B(O)OC2 [AN14817]
dose proportionality of exposure [6]: non-dose proportional exposure | genotoxicity, Ames [7]: non-genotoxic | inhibition of representative cytochrome P450 enzymes [8]: did not demonstrate significant inhibition | affinity for a broad array of mammalian enzymes, receptors and ion channels [9]: little to no affinity

Cc1c(C(=O)N[C@H](C(=O)O)C(C)C)ccc2c1B(O)OC2 [AN14667]
reduced activity on intracellular amastigotes ([10]; relative to parent ester (FIG. 2A)): ~1000 fold | reduced activity on extracellular amastigotes [11]: ~1000 fold

CC(C)[C@H](NC(=O)c1ccc2c(c1)B(O)OC2)C(=O)OCc1ccccc1 [AN10443]
in vitro activity against T. cruzi [10]: submicromolar activity | metabolic stability in mouse S9 liver fraction assay: good metabolic stability

Cc1c(C(=O)N[C@H](C(=O)OCc2ccc(S(C)(=O)=O)cc2)C(C)C)ccc2c1B(O)OC2 [AN14561]
in vitro activity against T. cruzi [10]: significantly less potent

O=C(Nc1ccc2c(c1)B(O)OC2)c1ccc(F)cc1C(F)(F)F [AN4169]
therapeutic margin in rodent tolerability studies [12]: insufficient therapeutic margin | cure of mice ([3]; mice infected with T. cruzi Brazil strain): 100%

CC[C@@H]([C@H](C)O)n1ncn(-c2ccc(N3CCN(c4ccc(OC[C@@H]5CO[C@@](Cn6cncn6)(c6ccc(F)cc6F)C5)cc4)CC3)cc2)c1=O [posaconazole]
failures in treatment trials [2]: 100%

Cc1c(C(=O)NC(C(=O)OCCN2CCOCC2)C(C)C)ccc2c1B(O)OC2 (centres unmarked) [AN15129]
in vitro activity against T. cruzi [10]: less active than neutral compounds

Cc1c(C(=O)N[C@H](C(=O)OCc2ccccc2)C(C)C)ccc2c1B(O)OC2 [AN11735]
IC50 ([10]; read-out: in vitro activity against T. cruzi (IC50)): < 10 nM
